target: T1, rat metabotropic glutamate receptor 5 (rmGluR5) (Rattus norvegicus, UniProt P31424); assay: Calcium mobilization (FLIPR) assay for negative allosteric modulation, EC80 glutamate, rmGluR5 in HEK 293; format: cell-based; settings: HEK293; rmGluR5, inhibition of EC80 glutamate response; read-out: FLIPR maximum inhibition
T1 construct: expressed in transfected cells
Method: The cDNA for rat metabotropic glutamate receptor 5 (rmGluR5) and the cDNA for human metabotropic glutamate receptor 5 (hmGluR5) were generous gifts from S. Nakanishi (Kyoto University, Kyoto, Japan). The rmGluR5 or hmGluR5 was stably expressed in a HEK 293 cell line and grown in Dulbecco's Modified Eagle Medium (DMEM) (Invitrogen, Carlsbad, Calif.) with supplements (10% bovine calf serum, 4 mM glutamine, 100 units/mL penicillin, 100 μg/mL streptomycin and 0.75 mM G1418) at 37° C., 5% CO2. Twenty-four hours prior to assay, cells were seeded into 384-well black wall microtiter plates coated with poly-D-lysine. Just prior to assay, media was aspirated and cells dye-loaded (25 μL/well) with 3 μM Fluo-4/0.01% pluronic acid in assay buffer (Hank's Balanced Saline Solution (HBSS)): 150 mM NaCl, 5 mM KCl, 1 mM CaCl2, 1 mM MgCl2, plus 20 mM N-2-Hydroxyethylpiperazine-N′-2-ethanesulfonic acid (HEPES), pH 7.4, 0.1% bovine serum albumin (BSA) and 2.5 mM probenicid) for 1 hour in 5% CO2 at 37° C. After excess dye was discarded, cells were washed in assay buffer and layered with a final volume equal to 30 μL/well. Basal fluorescence is monitored in a fluorometric imaging plate reader (FLIPR) (Molecular Devices, Sunnyvale, Calif.) with an excitation wavelength of 488 nm and an emission range of 500 to 560 nm. Laser excitation energy was adjusted so that basal fluorescence readings were approximately 10,000 relative fluorescent units. Cells were stimulated with an EC20 or an EC80 concentration of glutamate in the presence of a compound to be tested, both diluted in assay buffer, and relative fluorescent units were measured at defined intervals (exposure=0.6 sec) over a 3 min period at room temperature. Basal readings derived from negative controls were subtracted from all samples. Maximum change in fluorescence was calculated for each well. Concentration-response curves derived from the maximum change in fluorescence were analyzed by nonlinear regression (Hill equation). A negative modulator can be identified from these concentration-response curves if a compound produces a concentration dependent inhibition of the EC80 glutamate response.

T1 sequence (P31424 21-1203): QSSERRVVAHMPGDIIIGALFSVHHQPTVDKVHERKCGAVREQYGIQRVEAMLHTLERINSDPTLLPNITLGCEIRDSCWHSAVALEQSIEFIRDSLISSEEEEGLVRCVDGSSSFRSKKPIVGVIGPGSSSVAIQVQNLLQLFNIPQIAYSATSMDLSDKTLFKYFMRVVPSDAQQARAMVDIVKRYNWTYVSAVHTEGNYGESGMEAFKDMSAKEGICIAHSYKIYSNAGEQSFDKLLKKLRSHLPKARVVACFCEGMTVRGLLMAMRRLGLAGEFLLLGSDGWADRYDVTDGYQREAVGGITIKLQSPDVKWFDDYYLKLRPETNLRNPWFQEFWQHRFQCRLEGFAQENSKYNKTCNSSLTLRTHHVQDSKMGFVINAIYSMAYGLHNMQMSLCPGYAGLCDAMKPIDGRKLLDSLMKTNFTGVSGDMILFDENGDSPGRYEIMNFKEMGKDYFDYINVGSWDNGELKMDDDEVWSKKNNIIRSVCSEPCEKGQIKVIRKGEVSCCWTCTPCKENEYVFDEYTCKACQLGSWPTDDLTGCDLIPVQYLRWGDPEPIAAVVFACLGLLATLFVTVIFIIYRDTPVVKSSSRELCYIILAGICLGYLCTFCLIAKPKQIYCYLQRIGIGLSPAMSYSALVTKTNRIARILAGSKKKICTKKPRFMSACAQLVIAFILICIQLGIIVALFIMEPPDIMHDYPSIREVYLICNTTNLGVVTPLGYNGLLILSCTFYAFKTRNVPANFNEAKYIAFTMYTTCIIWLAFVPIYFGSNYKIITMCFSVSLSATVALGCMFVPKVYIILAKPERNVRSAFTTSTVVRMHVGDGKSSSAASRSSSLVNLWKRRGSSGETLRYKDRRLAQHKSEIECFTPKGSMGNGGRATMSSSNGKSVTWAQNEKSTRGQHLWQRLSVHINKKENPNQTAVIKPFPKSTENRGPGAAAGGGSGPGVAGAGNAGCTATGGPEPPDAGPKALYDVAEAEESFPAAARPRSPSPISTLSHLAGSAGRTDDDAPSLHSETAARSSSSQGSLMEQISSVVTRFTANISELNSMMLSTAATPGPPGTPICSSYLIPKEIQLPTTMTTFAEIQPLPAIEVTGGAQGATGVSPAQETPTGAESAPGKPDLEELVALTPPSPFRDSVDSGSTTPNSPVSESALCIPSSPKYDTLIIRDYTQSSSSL

| Emax | Structure (SMILES) |
| --- | --- |
| 81 to 99% | O=C(N[C@H]1CCC[C@]2(CCN(c3cccc(F)c3)C2=O)C1)c1ccccn1 (racemic) [Example 19, cis-Pyridine-2-carboxylic acid [2-(3-fluoro-phenyl)-1-oxo-2-aza-spiro[4.5]dec-7-yl]-amide] |
| 81 to 99% | Cc1cccc(C(=O)N[C@H]2CCC[C@]3(CCN(c4cc(F)cc(F)c4)C3=O)C2)n1 (racemic) [Example 42, cis-6-Methyl-pyridine-2-carboxylic acid [2-(3,5-difluoro-phenyl)-1-oxo-2-aza-spiro[4.5]dec-7-yl]-amide] |

The remaining lines, values behind:

| Structure (SMILES) | Emax |
| --- | --- |
| Cc1cccc(N2CC[C@]3(CCC[C@H](NC(=O)c4cccc(F)c4)C3)C2=O)n1 (racemic) [Example 27, cis-3-Fluoro-N-[2-(6-methyl-pyridin-2-yl)-1-oxo-2-aza-spiro[4.5]dec-7-yl]-benzamide] | 81 to 99% |
| Cc1cccc(C(=O)N[C@H]2CCC[C@]3(CCN(c4cccc(C(F)(F)F)n4)C3=O)C2)n1 (racemic) [Example 41, cis-6-Methyl-pyridine-2-carboxylic acid [1-oxo-2-(6-trifluoromethyl-pyridin-2-yl)-2-aza-spiro[4.5]dec-7-yl]-amide] | 81 to 99% |

target: T2, human metabotropic glutamate receptor 5 (hmGluR5) (Homo sapiens, UniProt P41594); assay: Calcium mobilization (FLIPR) assay for negative allosteric modulation, EC80 glutamate, hmGluR5 in HEK 293; format: cell-based; settings: HEK293; hmGluR5, inhibition of EC80 glutamate response; read-out: FLIPR maximum inhibition
T2 construct: expressed in transfected cells
How it was run: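 Stably transfected HEK 293 cells, Fluo-4-loaded, stimulated with EC80 glutamate plus test compound in HBSS/20 mM HEPES pH 7.4 with probenecid; FLIPR fluorescence read over 3 min at room temperature. Basal-subtracted maximum fluorescence change fitted by Hill equation; negative modulation seen as concentration-dependent inhibition of the EC80 response.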

T2 sequence (P41594 21-1212): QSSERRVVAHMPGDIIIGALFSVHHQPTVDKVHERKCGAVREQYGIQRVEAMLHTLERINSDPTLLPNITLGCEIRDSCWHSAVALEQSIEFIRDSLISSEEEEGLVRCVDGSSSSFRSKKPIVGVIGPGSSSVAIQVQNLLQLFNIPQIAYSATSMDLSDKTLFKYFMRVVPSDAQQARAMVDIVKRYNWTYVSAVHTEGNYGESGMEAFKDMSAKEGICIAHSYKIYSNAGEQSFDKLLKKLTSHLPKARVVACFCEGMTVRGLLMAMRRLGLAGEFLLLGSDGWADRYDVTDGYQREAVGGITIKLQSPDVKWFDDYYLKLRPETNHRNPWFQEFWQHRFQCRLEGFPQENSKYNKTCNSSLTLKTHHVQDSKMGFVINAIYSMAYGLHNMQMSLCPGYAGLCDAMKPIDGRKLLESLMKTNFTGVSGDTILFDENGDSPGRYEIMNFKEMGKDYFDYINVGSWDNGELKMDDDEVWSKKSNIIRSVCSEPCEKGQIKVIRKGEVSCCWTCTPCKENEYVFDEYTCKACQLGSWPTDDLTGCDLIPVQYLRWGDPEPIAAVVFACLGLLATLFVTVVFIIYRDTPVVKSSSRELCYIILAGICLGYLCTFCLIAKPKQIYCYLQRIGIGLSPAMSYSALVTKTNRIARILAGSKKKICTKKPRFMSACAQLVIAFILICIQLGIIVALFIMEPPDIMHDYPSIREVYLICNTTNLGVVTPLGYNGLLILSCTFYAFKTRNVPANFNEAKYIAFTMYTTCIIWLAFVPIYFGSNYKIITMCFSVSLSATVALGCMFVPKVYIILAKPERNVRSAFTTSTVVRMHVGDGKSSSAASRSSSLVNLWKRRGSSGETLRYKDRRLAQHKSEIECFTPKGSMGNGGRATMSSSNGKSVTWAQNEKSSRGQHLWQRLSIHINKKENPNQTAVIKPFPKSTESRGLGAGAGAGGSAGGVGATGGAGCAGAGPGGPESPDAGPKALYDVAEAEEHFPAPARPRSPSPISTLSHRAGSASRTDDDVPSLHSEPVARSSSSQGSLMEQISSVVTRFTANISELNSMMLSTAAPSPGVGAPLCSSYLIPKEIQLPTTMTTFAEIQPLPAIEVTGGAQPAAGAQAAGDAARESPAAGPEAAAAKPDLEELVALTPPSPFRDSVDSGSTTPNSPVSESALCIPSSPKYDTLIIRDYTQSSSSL

| Emax | Structure (SMILES) |
| --- | --- |
| 73 to 95% | Cc1cccc(C(=O)N[C@@H]2CCC[C@@]3(CCN(c4cc(F)cc(F)c4)C3=O)C2)n1 (single isomer, unassigned) [Example 67] |
| 73 to 95% | Cc1cccc(C(=O)N[C@H]2CCC[C@]3(CCN(c4cc(F)cc(F)c4)C3=O)C2)n1 (single isomer, unassigned) [Example 81] |
| 88 to 93% | O=C(N[C@@H]1CC(F)(F)C[C@@]2(CCN(c3cccc(F)c3)C2=O)C1)c1ccccn1 (single isomer, unassigned) [Example 98] |
| 88 to 93% | O=C(N[C@H]1CC(F)(F)C[C@]2(CCN(c3cccc(F)c3)C2=O)C1)c1ccccn1 (single isomer, unassigned) [Example 99] |
| 47 to 93% | O=C(N[C@H]1CC(F)(F)C[C@@]2(CCN(c3cccc(F)c3)C2=O)C1)c1ccccn1 (single isomer, unassigned) [Example 101] |
| 47 to 93% | O=C(N[C@@H]1CC(F)(F)C[C@]2(CCN(c3cccc(F)c3)C2=O)C1)c1ccccn1 (single isomer, unassigned) [Example 102] |
| 47 to 93% | Cc1nccc(C(=O)N[C@H]2CC(F)(F)C[C@]3(CCN(c4cccc(F)c4)C3=O)C2)n1 (single isomer, unassigned) [Example 103] |
| 47 to 93% | Cc1nccc(C(=O)N[C@@H]2CC(F)(F)C[C@@]3(CCN(c4cccc(F)c4)C3=O)C2)n1 (single isomer, unassigned) [Example 104] |
| 47 to 93% | O=C(N[C@H]1CC(F)(F)C[C@]2(CCN(c3cc(F)cc(F)c3)C2=O)C1)c1ccccn1 (single isomer, unassigned) [Example 113] |
| 47 to 93% | O=C(N[C@@H]1CC(F)(F)C[C@@]2(CCN(c3cc(F)cc(F)c3)C2=O)C1)c1ccccn1 (single isomer, unassigned) [Example 114] |
| 47 to 93% | Cc1nccc(C(=O)N[C@@H]2C[C@@](C)(O)C[C@@]3(CCN(c4cc(F)cc(F)c4)C3=O)C2)n1 (single isomer, unassigned) [Example 118, trans-2-Methyl-pyrimidine-4-carboxylic acid [2-(3,5-difluoro-phenyl)-9-hydroxy-9-methyl-1-oxo-2-aza-spiro[4.5]dec-7-yl]-amide] |
| 47 to 93% | Cc1nccc(C(=O)N[C@@H]2C[C@](C)(O)C[C@@]3(CCN(c4cc(F)cc(F)c4)C3=O)C2)n1 (single isomer, unassigned) [Example 119, cis-2-Methyl-pyrimidine-4-carboxylic acid [2-(3,5-difluoro-phenyl)-9-hydroxy-9-methyl-1-oxo-2-aza-spiro[4.5]dec-7-yl]-amide] |
| 47 to 93% | Cc1nccc(N2CC[C@@]3(C[C@@H](NC(=O)c4cccc(F)c4)CC(F)(F)C3)C2=O)n1 (single isomer, unassigned) [Example 120] |
| 47 to 93% | Cc1nccc(N2CC[C@]3(C[C@H](NC(=O)c4cccc(F)c4)CC(F)(F)C3)C2=O)n1 (single isomer, unassigned) [Example 121] |
| 47 to 93% | Cc1cccc(C(=O)N[C@H]2CC(F)(F)C[C@]3(CCN(c4ccc(F)cn4)C3=O)C2)n1 (single isomer, unassigned) [Example 127] |
| 47 to 93% | CC1(F)CC(NC(=O)c2ccccn2)CC2(CCN(c3cccc(F)c3)C2=O)C1 (centres unmarked) [Example 160, Pyridine-2-carboxylic acid [9-fluoro-2-(3-fluoro-phenyl)-9-methyl-1-oxo-2-aza-spiro[4.5]dec-7-yl]-amide] |

Further lines, the compound ahead of its results:

| Structure (SMILES) | Emax |
| --- | --- |
| Cc1cc(N2CC[C@]3(CCC[C@H](NC(=O)c4cccc(F)c4)C3)C2=O)nc(C)n1 (relative stereo) [Example 151, cis-N-[2-(2,6-Dimethyl-pyrimidin-4-yl)-1-oxo-2-aza-spiro[4.5]dec-7-yl]-3-fluoro-benzamide] | 47 to 93% |
| Cc1cccc(C(=O)N[C@H]2CCC[C@]3(CCN(C)C3=O)C2)n1 (relative stereo) [Example 153] | 47 to 93% |
| CCN1CC[C@]2(CCC[C@H](NC(=O)c3cccc(C)n3)C2)C1=O (relative stereo) [Example 154] | 47 to 93% |
| CCCN1CC[C@]2(CCC[C@H](NC(=O)c3cccc(C)n3)C2)C1=O (relative stereo) [Example 155] | 47 to 93% |
| O=C1c2ccccc2CN1C1CCCC2(CCN(c3cccc(Cl)c3)C2=O)C1 (single isomer, unassigned) [Example 100, cis-2-[2-(3-chloro-phenyl)-1-oxo-2-aza-spiro[4.5]dec-7-yl]-2,3-dihydro-isoindol-1-one] | 47 to 93% |
| Cc1cccc(C(=O)N[C@@H]2CCC[C@@]3(CCN(c4ccc(F)cn4)C3=O)C2)n1 [Example 73, 6-Methyl-pyridine-2-carboxylic acid [(5R,7R)-2-(5-fluoro-pyridin-2-yl)-1-oxo-2-aza-spiro[4.5]dec-7-yl]-amide] | 73 to 95% |
| Cc1cccc(C(=O)N[C@@H]2CCC[C@@]3(CCN(c4ccc(F)cc4)C3=O)C2)n1 [Example 80, 6-Methyl-pyridine-2-carboxylic acid [(5R,7R)-2-(4-fluoro-phenyl)-1-oxo-2-aza-spiro[4.5]dec-7-yl]-amide] | 73 to 95% |
| Cc1cc(C(=O)N[C@@H]2CCC[C@@]3(CCN(c4cccc(F)c4)C3=O)C2)ccn1 [Example 95, N-[(5R,7R)-2-(3-Fluoro-phenyl)-1-oxo-2-aza-spiro[4.5]dec-7-yl]-2-methyl-isonicotinamide] | 73 to 95% |
| CN(C)c1cccc(N2CC[C@]3(CCC[C@H](NC(=O)c4cccc(F)c4)C3)C2=O)c1 [Example 132, Cis-N-[(5S,7S)-2-(3-Dimethylamino-phenyl)-1-oxo-2-aza-spiro[4.5]dec-7-yl]-3-fluoro-benzamide] | 47 to 93% |
| Cc1nccc(N2CC[C@@]3(CCC[C@@H](NC(=O)c4cccc(Cl)c4)C3)C2=O)n1 [Example 148, 3-Chloro-N-[(5R,7R)-2-(2-methyl-pyrimidin-4-yl)-1-oxo-2-aza-spiro[4.5]dec-7-yl]-benzamide] | 47 to 93% |
| Cc1cccc(C(=O)N[C@@H]2CCC[C@@]3(CCN(c4ccnc(C)n4)C3=O)C2)c1 [Example 152, 3-Methyl-N-[(5R,7R)-2-(2-methyl-pyrimidin-4-yl)-1-oxo-2-aza-spiro[4.5]dec-7-yl]-benzamide] | 47 to 93% |
| Cc1cccc(C(=O)N[C@@H]2CCC[C@@]3(CCN(c4ccnc(C(F)(F)F)n4)C3=O)C2)n1 [Example 156, 6-Methyl-pyridine-2-carboxylic acid[(5R,7R)-1-oxo-2-(2-trifluoromethyl-pyrimidin-4-yl)-2-aza-spiro[4.5]dec-7-yl]-amide] | 47 to 93% |
| CN1CCC(N2CCC3(CCCC(NC(=O)c4cccc(F)c4)C3)C2=O)CC1 (centres unmarked) [Example 157, 3-Fluoro-N-[2-(1-methyl-piperidin-4-yl)-1-oxo-2-aza-spiro[4.5]dec-7-yl]-benzamide] | 47 to 93% |
| Cn1ccc(N2CCC3(CCCC(NC(=O)c4cccc(F)c4)C3)C2=O)n1 (centres unmarked) [Example 158, 3-Fluoro-N-[2-(1-methyl-1H-pyrazol-3-yl)-1-oxo-2-aza-spiro[4.5]dec-7-yl]-benzamide] | 47 to 93% |
| Cc1nc(C(=O)N[C@@H]2CCC[C@@]3(CCN(c4cc(F)cc(F)c4)C3=O)C2)cc(=O)[nH]1 [Example 159, 2-Methyl-6-oxo-1,6-dihydro-pyrimidine-4-carboxylic acid [(5R,7R)-2-(3,5-difluoro-phenyl)-1-oxo-2-aza-spiro[4.5]dec-7-yl]amide] | 47 to 93% |
